Columns and labels:
Assay in all cases: Microbial challenge testing in BPW
Assay type in all cases: cell-based
Staphylococcus aureus = conditions: BPW, w/v % in label, average of replicates; for Grade code, S. aureus, 3 Day: 3 days incubation; for Grade code, S. aureus, 14 Day: 14 days incubation; for Grade code, S. aureus, 30 Day: 30 days incubation
Outline: (§1)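 Bacteria, including ATCC and wild-type isolates from chemical products, were grown in tryptose soy broth with 1% dextrose for at least 96 hours. Inoculum was sized by plate count and turbidity (NTU) and added to test-material substrates to give 10^5 to 10^6 cfu/mL initially. Incubation ran 14 days at 35° C., then at room temperature.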

Escherichia coli = conditions: BPW, w/v % in label, average of replicates; for Grade code, E. coli, 3 Day: 3 days incubation; for Grade code, E. coli, 14 Day: 14 days incubation; for Grade code, E. coli, 30 Day: 30 days incubation
Outline: as §1

Streptococcus mutans = conditions: BPW, w/v % in label, average of replicates
Outline: as §1

[1] = system: Staphylococcus epidermidis; conditions: BPW, w/v % in label, average of replicates; for Grade code, S. epidermidis, 3 Days: 3 days incubation; for Grade code, S. epidermidis, 13 Days: 13 days incubation; for Grade code, S. epidermidis, 30 Days: 30 days incubation
Outline: as §1

Bacillus subtilis = conditions: BPW, w/v % in label, average of replicates; for Grade code, B. subtilis, 3 Day: 3 days incubation; for Grade code, B. subtilis, 14 Day: 14 days incubation; for Grade code, B. subtilis, 30 Days: 30 days incubation
Outline: as §1

Proteus vulgaris = conditions: BPW, w/v % in label, average of replicates; for Grade code, P. vulgaris, 3 Days: 3 days incubation
Outline: as §1

Burkholderia cepacia = conditions: BPW, w/v % in label, average of replicates; for Grade code, B. cepacia, 14 Days: 14 days incubation; for Grade code, B. cepacia, 30 Days: 30 days incubation
Outline: as §1

Pseudomonas aeruginosa = conditions: BPW, w/v % in label, average of replicates; for Grade code, P. aeruginosa, 3 Days: 3 days incubation; for Grade code, P. aeruginosa, 13 Days: 13 days incubation; for Grade code, P. aeruginosa, 30 Days: 30 days incubation
Outline: as §1

Aeromonas sp. = conditions: BPW, w/v % in label, average of replicates
Outline: as §1

CCCCCCC(O)CO (stereo not drawn) [CG, 1,2-octanediol]
Grade code, S. aureus, 3 Day (Staphylococcus aureus; listed as 0.25% CG): 4 (1001 to 10,000 colonies (thus 10,000 cfu/mL to 100,000 cfu/mL))
Grade code, S. aureus, 3 Day (Staphylococcus aureus; listed as 0.5% CG): 3 (101 to 1000 colonies (thus 1000 to 10,000 cfu/mL))
Grade code, S. aureus, 14 Day (Staphylococcus aureus; listed as 0.25% CG): 2 (52 to 100 colonies counted (thus 520 to 1000 cfu/mL))
Grade code, S. aureus, 14 Day (Staphylococcus aureus; listed as 0.5% CG): 0 (No growth detected or <1 colony (thus <10 cfu/mL))
Grade code, S. aureus, 30 Day (Staphylococcus aureus; listed as 0.25% CG): 2 (52 to 100 colonies counted (thus 520 to 1000 cfu/mL))
Grade code, S. aureus, 30 Day (Staphylococcus aureus; listed as 0.5% CG): 0 (No growth detected or <1 colony (thus <10 cfu/mL))
Grade code, E. coli, 3 Day (Escherichia coli; listed as 0.25% CG): 3 (101 to 1000 colonies (thus 1000 to 10,000 cfu/mL))
Grade code, E. coli, 3 Day (Escherichia coli; listed as 0.5% CG): 1 (1 to 51 colonies counted (thus 10 to 510 cfu/mL))
Grade code, E. coli, 14 Day (Escherichia coli; listed as 0.25% CG): 2 (52 to 100 colonies counted (thus 520 to 1000 cfu/mL))
Grade code, E. coli, 14 Day (Escherichia coli; listed as 0.5% CG): 0 (No growth detected or <1 colony (thus <10 cfu/mL))
Grade code, E. coli, 30 Day (Escherichia coli; listed as 0.25% CG): 2 (52 to 100 colonies counted (thus 520 to 1000 cfu/mL))
Grade code, E. coli, 30 Day (Escherichia coli; listed as 0.5% CG): 0 (No growth detected or <1 colony (thus <10 cfu/mL))
Grade code, S. mutans, 3 Day (Streptococcus mutans; 3 days incubation): 0 (No growth detected or <1 colony (thus <10 cfu/mL))
Grade code, S. mutans, 13 Day (Streptococcus mutans; 13 days incubation): 0 (No growth detected or <1 colony (thus <10 cfu/mL))
Grade code, S. mutans, 30 Days (Streptococcus mutans; 30 days incubation): 0 (No growth detected or <1 colony (thus <10 cfu/mL))
Grade code, S. epidermidis, 3 Days ([1]; listed as 0.25% CG): 4 (1001 to 10,000 colonies (thus 10,000 cfu/mL to 100,000 cfu/mL))
Grade code, S. epidermidis, 3 Days ([1]; listed as 0.5% CG): 2 (52 to 100 colonies counted (thus 520 to 1000 cfu/mL))
Grade code, S. epidermidis, 13 Days ([1]; listed as 0.25% CG): 1 (1 to 51 colonies counted (thus 10 to 510 cfu/mL))
Grade code, S. epidermidis, 13 Days ([1]; listed as 0.5% CG): 0 (No growth detected or <1 colony (thus <10 cfu/mL))
Grade code, S. epidermidis, 30 Days ([1]; listed as 0.25% CG): 1 (1 to 51 colonies counted (thus 10 to 510 cfu/mL))
Grade code, S. epidermidis, 30 Days ([1]; listed as 0.5% CG): 0 (No growth detected or <1 colony (thus <10 cfu/mL))
Grade code, B. subtilis, 3 Day (Bacillus subtilis; listed as 0.25% CG): 4 (1001 to 10,000 colonies (thus 10,000 cfu/mL to 100,000 cfu/mL))
Grade code, B. subtilis, 3 Day (Bacillus subtilis; listed as 0.5% CG): 3 (101 to 1000 colonies (thus 1000 to 10,000 cfu/mL))
Grade code, B. subtilis, 14 Day (Bacillus subtilis; listed as 0.25% CG): 4 (1001 to 10,000 colonies (thus 10,000 cfu/mL to 100,000 cfu/mL))
Grade code, B. subtilis, 14 Day (Bacillus subtilis; listed as 0.5% CG): 1 (1 to 51 colonies counted (thus 10 to 510 cfu/mL))
Grade code, B. subtilis, 30 Days (Bacillus subtilis; listed as 0.25% CG): 4 (1001 to 10,000 colonies (thus 10,000 cfu/mL to 100,000 cfu/mL))
Grade code, B. subtilis, 30 Days (Bacillus subtilis; listed as 0.5% CG): 1 (1 to 51 colonies counted (thus 10 to 510 cfu/mL))
Grade code, P. vulgaris, 3 Days (Proteus vulgaris; listed as 0.25% CG): 4 (1001 to 10,000 colonies (thus 10,000 cfu/mL to 100,000 cfu/mL))
Grade code, P. vulgaris, 3 Days (Proteus vulgaris; listed as 0.5% CG): 3 (101 to 1000 colonies (thus 1000 to 10,000 cfu/mL))
Grade code, P. vulgaris, 13 Days (Proteus vulgaris; 13 days incubation): 2 (52 to 100 colonies counted (thus 520 to 1000 cfu/mL))
Grade code, P. vulgaris, 30 Day (Proteus vulgaris; 30 days incubation): 2 (52 to 100 colonies counted (thus 520 to 1000 cfu/mL))
Grade code, B. cepacia, 3 Days (Burkholderia cepacia; 3 days incubation): 2 (52 to 100 colonies counted (thus 520 to 1000 cfu/mL))
Grade code, B. cepacia, 14 Days (Burkholderia cepacia; listed as 0.25% CG): 0.5
Grade code, B. cepacia, 14 Days (Burkholderia cepacia; listed as 0.5% CG): 0 (No growth detected or <1 colony (thus <10 cfu/mL))
Grade code, B. cepacia, 30 Days (Burkholderia cepacia; listed as 0.25% CG): 0.5
Grade code, B. cepacia, 30 Days (Burkholderia cepacia; listed as 0.5% CG): 0 (No growth detected or <1 colony (thus <10 cfu/mL))
Grade code, P. aeruginosa, 3 Days (Pseudomonas aeruginosa; listed as 0.25% CG): 2 (52 to 100 colonies counted (thus 520 to 1000 cfu/mL))
Grade code, P. aeruginosa, 3 Days (Pseudomonas aeruginosa; listed as 0.5% CG): 0 (No growth detected or <1 colony (thus <10 cfu/mL))
Grade code, P. aeruginosa, 13 Days (Pseudomonas aeruginosa; listed as 0.25% CG): 2 (52 to 100 colonies counted (thus 520 to 1000 cfu/mL))
Grade code, P. aeruginosa, 13 Days (Pseudomonas aeruginosa; listed as 0.5% CG): 0 (No growth detected or <1 colony (thus <10 cfu/mL))
Grade code, P. aeruginosa, 30 Days (Pseudomonas aeruginosa; listed as 0.25% CG): 2 (52 to 100 colonies counted (thus 520 to 1000 cfu/mL))
Grade code, P. aeruginosa, 30 Days (Pseudomonas aeruginosa; listed as 0.5% CG): 0 (No growth detected or <1 colony (thus <10 cfu/mL))
Grade code, Aeromonas sp, 3 Days (Aeromonas sp.; 3 days incubation): 4 (1001 to 10,000 colonies (thus 10,000 cfu/mL to 100,000 cfu/mL))
Grade code, Aeromonas sp, 14 Days (Aeromonas sp.; 14 days incubation): 4 (1001 to 10,000 colonies (thus 10,000 cfu/mL to 100,000 cfu/mL))
Grade code, Aeromonas sp, 30 Days (Aeromonas sp.; 30 days incubation): 4 (1001 to 10,000 colonies (thus 10,000 cfu/mL to 100,000 cfu/mL))

Reference: patent US20110028566A1, “COMPOSITIONS AND PRODUCTS CONTAINING CYCLOALIPHATIC DIOL ANTIMICROBIAL AGENTS AND METHODS OF USING THE COMPOSITIONS AND PRODUCTS” (EASTMAN CHEMICAL COMPANY, priority 2009, published 2011)
